According to patent US4826837A, “Cinnoline-carboxamides and process for their preparation” (Farmitalia Carlo Erba s.r.l., priority 1987, dated 1989):

Assays:
TU5 tumoral cells = test: Macrophage cytotoxic activity towards TU5 tumoral cells (peritoneal cells of mice treated i.p., collected seven days later and incubated with tumor target cells); format: cell-based, mouse; settings: peritoneal cells collected 7 days later, 48 h incubation with TU5 tumoral cells, colorimetric at 570 nm
Description: The experimental procedure to evaluate this activity is as follows: groups of 4 mice are treated i.p. with the tested compounds and then, seven days later, peritoneal cells are collected and plated for 2 hours at 37° C. After this period the walls are washed to eliminate the non adherent cells, tumor target cells are then added and the incubation is prolonged for 48 hours. At the end of this period the target cells viability is evaluated by a colorimetric method and quantified at 570 nm.
The following table summarizes the immunostimulating activity data of some compounds of the invention, obtained according to the hereabove experimental procedure, towards TU5 tumoral cells (Eur. J. Immunol. 1982, 12, 320)
Cytotoxic activity is calculated as % inhibition of TU5 tumoral cells growth using the following formula [formula] where
O.D.A.=optical density from cocultured TU5 and vehicol treated macrophages
O.D.B.=optical density from vehicol treated macrophages alone
O.D.C=optical density from cocultured TU5 and FCE compound treated macrophages
O.D.D=optical density from FCE compound treated macrophages alone.

[1] = Approximate acute toxicity (LD50) in the mouse, per os; settings: in vivo, po, single administration of increasing doses, measured on seventh day after the day of treatment
Description: For example, the approximate acute toxicity (LD50) in the mouse of the compound 4-hydroxy-N-(2-pyridyl)-cinnoline-3-carboxamide determined per os with single administration of increasing doses and measured on the seventh day after the day of treatment, is higher than 800 mg/kg. Analogous toxicity data have been found for the other compounds of the invention.

Compound | Macrophage cytotoxic activity (% inhibition) (TU5 tumoral cells; 10 mg/kg i.p. to mice) [%] | LD50 at 168 h [1] [mg/kg] | Macrophage cytotoxic activity (% inhibition) (TU5 tumoral cells; 50 mg/kg i.p. to mice) [%]
O=C(Nc1ccccn1)c1nnc2ccccc2c1O [FCE 24089, 4-hydroxy-N-(2-pyridyl)-cinnoline-3-carboxamide] | 90 | > 800 | –
O=C(Nc1ccccc1)c1nnc2ccccc2c1O [FCE 25008, 4-hydroxy-N-phenyl-cinnoline-3-carboxamide] | – | – | 71
CN(C(=O)c1nnc2ccccc2c1O)c1ccccn1 [FCE 25051, 4-hydroxy-N-methyl-N-(2-pyridyl)-cinnoline-3-carboxamide] | – | – | 80
